*1 amine or outer side, *2 acyl side, *3 side chain or, on linkers, in order; H or OH if unused. Where a SMILES comes first, the peptide text is derived from it. Bridges are numbered along the chain shown (N, C = ends). [ ]: non-standard residue; d: D form. X6 = O=C([C@H](Cc1c[nH]c2c(-c3cccc(OC(F)(F)F)c3)cccc12)N[*:1])[*:2]; X1 = O=C([C@H](Cc1c[nH]c2c(-c3cccc(C(F)(F)F)c3)cccc12)N[*:1])[*:2]; X3 = Cc1cccc(-c2cccc3c(C[C@H](N[*:1])C(=O)[*:2])c[nH]c23)c1; Trp(7-Ph) = N[C@@H](Cc1c[nH]c2c(-c3ccccc3)cccc12)C(=O)O; Abu(4-yl) = O=C([C@H](CC[*:3])N[*:1])[*:2]; 2Nal = N[C@@H](Cc1ccc2ccccc2c1)C(=O)O; Trp(7-thienyl) = 7-thienyl-tryptophan; AEF = NCCOc1ccc(C[C@H](N)C(=O)O)cc1; Pen = CC(C)(S)[C@H](N)C(=O)O; αMeK = C[C@](N)(CCCCN)C(=O)O; Abu = CC[C@H](N)C(=O)O
Columns and labels:
[1] = Stability in cynomolgus monkey fecal homogenate (anaerobic); assay type: in vitro ADME; settings: pH 6.8, 20% cynomolgus monkey fecal homogenate, 37° C., up to 24 hours, read-out: t1/2: Monkey Feces anaerobic (converted)
Procedure: (§1) Studies were carried out in human or cynomolgus monkey fecal homogenate to evaluate gastrointestinal stability of the peptide inhibitors of the present invention.
(§2) Fecal homogenate ([…]) was prepared by adding 4 mL of growth medium (1 liter contains 2 g peptone water powder, 2 g yeast extract, 0.1 g NaCl, 0.04 g KH2PO4, 0.01 g CaCl2.6H2O, 0.01 g MgSO4.7H2O, 2 mL Tween 80, 0.5 g bile salts, 0.5 g L-cysteine HCl, 2 g NaHCO3, and 10 μL Vitamin K, pH adjusted to 6.8, and sterilized by filtration through a 0.22 μm filter) to every gram of feces (pooled freshly collected human or cynomolgus monkey feces). The suspension was vortexed to break up large clumps, and homogenized using a bead mill homogenizer. Centrifuged the homogenate at 2800×g for 15 min. The supernatant is taken out and used for incubations. DMSO stocks (10 mM) were first prepared for the test compounds. Incubations were performed in an anaerobic chamber conditioned at 37° C. Aliquots of the DMSO solutions were dosed into 1.0 mL aliquots of 20% fecal homogenate, which are pre-warmed to 37° C. The final test compound concentration was 20 μM. At each timepoint (0, 20 min, 1, 3, 6, or 24 hours), 100 μL aliquot of each incubation mixture is taken out and added to separate tubes containing 300 μL of 50% acetonitrile/50% methanol and an internal standard to terminate the reaction. Samples were taken out of the anaerobic chamber and stored at 4° C. until the end of the experiment. After the final timepoint is sampled, the tubes were mixed and then centrifuged at 3,000 rpm for 10 minutes. Aliquots of the supernatant were removed, diluted 1:1 into distilled water containing 0.1% formic acid, and analyzed by LC/MS/MS. Percent remaining at each timepoint was calculated based on the peak area response ratio of test to compound to internal standard. Time 0 was set to 100%, and all later timepoints were calculated relative to time 0. Half-lives were calculated by fitting to a first-order exponential decay equation using Graphpad or Excel.

[2] = Stability in simulated intestinal fluid (SIF); assay type: in vitro ADME; settings: 37° C.; for half-life at 20 μM: pH 6.8, 100 fold dilution of standard SIF concentration, read-out: SIF t1/2 (converted); for SIF t1/2: 100 fold dilution of standard SIF concentration, 20 μM
Procedure: Studies were carried out in simulated intestinal fluid (SIF) and simulated gastric fluid (SGF) to evaluate gastric stability of the peptide inhibitors of the present invention. In addition, studies were carried out to assess redox stability of the peptide inhibitors of the present invention.
SIF was prepared by adding 6.8 g of monobasic potassium phosphate and 10.0 g of pancreatin to 1.0 L of water. After dissolution, the pH was adjusted to 6.8 using NaOH. DMSO stocks (2 mM) were first prepared for the test compounds. Aliquots of the DMSO solutions were dosed into 6 individual tubes, each containing 0.5 mL of SIF, which is pre-warmed to 37° C. The final test compound concentration was 20 μM. The vials were kept in a benchtop Thermomixer® for the duration of the experiment. At each timepoint (0, 5, 10, 20, 40, 60, or 360 minutes or 24 hours), 1.0 mL of acetonitrile containing 1% formic acid was added to one vial to terminate the reaction. Samples were stored at 4° C. until the end of the experiment. After the final timepoint is sampled, the tubes were mixed and then centrifuged at 3,000 rpm for 10 minutes. Aliquots of the supernatant were removed, diluted 1:1 into distilled water containing internal standard, and analyzed by LCMS/MS. Percent remaining at each timepoint was calculated based on the peak area response ratio of test to compound to internal standard. Time 0 was set to 100%, and all later timepoints were calculated relative to time 0. Half-lives were calculated by fitting to a first-order exponential decay equation using Graphpad.

[3] = system: Natural killer (NK) cells; assay type: cell-based, human
Text: Where not shown, data was not yet determined.

[4] = Stability in human fecal homogenate (anaerobic); assay type: in vitro ADME; settings: pH 6.8, 20% human fecal homogenate, 37° C., up to 24 hours, read-out: t1/2: Human Feces anaerobic
Procedure: as §1, §2

[5] = Stability in rat plasma; assay type: in vitro ADME; settings: both sexes, pooled, SD rat plasma, EDTA, 37° C., up to 24 hours, read-out: t1/2: Rat Plasma EDTA
Procedure: Peptides of interest (20 μM) were incubated with pre-warmed rat plasma (SD rat, mixed gender pooled, EDTA, filtered through 0.22 μm, BioreclamationIVT) at 37° C. Aliquots were taken at various time points up to 24 hours (e.g. 0, 0.25, 1, 3, 6 and 24 hr), and immediately quenched with 4 volumes of organic solvent (acetonitrile/methanol (1:1) and 0.1% formic acid, containing 1 μM internal standard). Quenched samples were stored at 4° C. until the end of the experiment and centrifuged at 4,000 rpm for 10 minutes. The supernatant were diluted 1:1 with deionized water and analyzed using LC-MS. Percentage remaining at each time point was calculated based on the peak area ratio (analyte over internal standard) relative to the initial level at time zero. Half-lives were calculated by fitting to a first-order exponential decay equation using GraphPad.

[6] = molecular target: T1, interleukin-23 receptor (IL-23R), human (human, UniProt Q5VWK5 24-629); assay: cell-based or functional assay
T1 sequence (looked up): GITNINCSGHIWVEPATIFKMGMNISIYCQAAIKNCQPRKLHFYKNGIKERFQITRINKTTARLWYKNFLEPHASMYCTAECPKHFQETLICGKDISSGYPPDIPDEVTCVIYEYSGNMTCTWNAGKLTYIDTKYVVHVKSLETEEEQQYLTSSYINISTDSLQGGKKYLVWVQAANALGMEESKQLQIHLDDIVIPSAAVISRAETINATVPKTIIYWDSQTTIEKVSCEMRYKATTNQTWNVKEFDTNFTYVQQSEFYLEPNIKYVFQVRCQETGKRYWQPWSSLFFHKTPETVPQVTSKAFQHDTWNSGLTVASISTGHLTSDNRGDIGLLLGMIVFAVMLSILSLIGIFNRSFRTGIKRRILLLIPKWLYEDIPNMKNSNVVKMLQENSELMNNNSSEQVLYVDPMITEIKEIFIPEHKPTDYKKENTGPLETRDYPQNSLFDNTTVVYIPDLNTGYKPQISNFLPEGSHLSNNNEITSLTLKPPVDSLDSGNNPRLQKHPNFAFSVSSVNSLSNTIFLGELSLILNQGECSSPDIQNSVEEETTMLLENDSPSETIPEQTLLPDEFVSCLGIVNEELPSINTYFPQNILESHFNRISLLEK

Row | Molecule | half-life at 20 μM [1] | half-life at 20 μM [2] | IC50 [3] | half-life at 20 μM [4] | half-life at 20 μM [5] | SIF t1/2 [2] | pStat3 HTRF IC50 (DB cells IL23R pSTAT3 cell assay, 0.5 nM IL-23) [6]
1 | CC(=O)NCCCC[C@@H]1NC(=O)[C@H](Cc2c[nH]c3c(-c4ccccc4)cccc23)NC(=O)[C@H]([C@@H](C)O)NC(=O)[C@H](CC(N)=O)NC(=O)[C@@H](NC(C)=O)C(C)(C)SSC(C)(C)[C@@H](C(=O)N[C@@H](Cc2ccc(OCCN)cc2)C(=O)N[C@@H](Cc2ccc3ccccc3c2)C(=O)N[C@@](C)(CCCCN)C(=O)N[C@@H](CCCCNC(C)=O)C(=O)N[C@@H](CC(N)=O)C(=O)N[C@H](CC(C)C)C(N)=O)NC1=O [Peptide 1, Ac-[Pen]-N-T-[W(7-Ph)]-[Lys(Ac)]-[Pen]-Phe[4-(2-aminoethoxy)]-[2-Nal]-[a-MeLys]-[Lys(Ac)]-N-[(D)Leu]-NH2] | > 24 h | 11.1 h | 4.3 nM | > 24 h | > 24 h |  | 
2 | CC(=O)NCCCC[C@@H]1NC(=O)[C@H](Cc2c[nH]c3c(-c4cccc(C)c4)cccc23)NC(=O)[C@H]([C@@H](C)O)NC(=O)[C@H](CC(N)=O)NC(=O)[C@@H](NC(C)=O)C(C)(C)SSC(C)(C)[C@@H](C(=O)N[C@@H](Cc2ccc(OCCN)cc2)C(=O)N[C@@H](Cc2ccc3ccccc3c2)C(=O)N[C@@](C)(CCCCN)C(=O)N[C@@H](CCCCNC(C)=O)C(=O)N[C@@H](CC(N)=O)C(=O)N[C@H](CCCCN)C(N)=O)NC1=O [Peptide 7, Ac-[Pen]-N-T-[W(7-(3-MePh))]-[Lys(Ac)]-[Pen]-Phe[4-(2-aminoethoxy)]-[2-Nal]-[a-MeLys]-[Lys(Ac)]-N-[(D)Lys)]-NH2] (Ac-[Pen]NT[X3]K(Ac)[Pen][AEF][2Nal][αMeK]K(Ac)N[dK]-NH2; disulfide 1-6) | > 24 h |  | 5.87 nM | > 24 h | > 24 h | 24 h | 
3 | CC(=O)NCCCC[C@@H]1NC(=O)[C@H](Cc2c[nH]c3c(-c4cccc(C(F)(F)F)c4)cccc23)NC(=O)[C@H]([C@@H](C)O)NC(=O)[C@H](CC(N)=O)NC(=O)[C@@H](NC(C)=O)C(C)(C)SSC(C)(C)[C@@H](C(=O)N[C@@H](Cc2ccc(OCCN)cc2)C(=O)N[C@@H](Cc2ccc3ccccc3c2)C(=O)N[C@@](C)(CCCCN)C(=O)N[C@@H](CCCCNC(C)=O)C(=O)N[C@@H](CC(N)=O)C(=O)N[C@H](CCCCN)C(N)=O)NC1=O [Peptide 9, Ac-[Pen]-N-T-[W(7-(3-CF3Ph))]-[Lys(Ac)]-[Pen]-Phe[4-(2-aminoethoxy)]-[2-Nal]-[a-MeLys]-[Lys(Ac)]-N-[(D)Lys)]-NH2] (Ac-[Pen]NT[X1]K(Ac)[Pen][AEF][2Nal][αMeK]K(Ac)N[dK]-NH2; disulfide 1-6) | > 24 h |  | 9.3 nM | > 24 h | > 24 h | 24 h | 
4 | CC(=O)NCCCC[C@@H]1NC(=O)[C@H](Cc2c[nH]c3c(-c4cccc(OC(F)(F)F)c4)cccc23)NC(=O)[C@H]([C@@H](C)O)NC(=O)[C@H](CC(N)=O)NC(=O)[C@@H](NC(C)=O)C(C)(C)SSC(C)(C)[C@@H](C(=O)N[C@@H](Cc2ccc(OCCN)cc2)C(=O)N[C@@H](Cc2ccc3ccccc3c2)C(=O)N[C@@](C)(CCCCN)C(=O)N[C@@H](CCCCNC(C)=O)C(=O)N[C@@H](CC(N)=O)C(=O)N[C@H](CCCCN)C(N)=O)NC1=O [Peptide 12, Ac-[Pen]-N-T-[W(7-(3-OCF3Ph))]-[Lys(Ac)]-[Pen]-Phe[4-(2-aminoethoxy)]-[2-Nal]-[a-MeLys]-[Lys(Ac)]-N-[(D)Lys)]-NH2] (Ac-[Pen]NT[X6]K(Ac)[Pen][AEF][2Nal][αMeK]K(Ac)N[dK]-NH2; disulfide 1-6) | > 6 h |  |  | > 24 h | > 24 h | 24 h | 
5 | CC(=O)NCCCC[C@@H]1NC(=O)[C@H](Cc2c[nH]c3c(-c4ccccc4)cccc23)NC(=O)[C@H]([C@@H](C)O)NC(=O)[C@H](CCC(N)=O)NC(=O)[C@@H](NC(C)=O)CCSC[C@@H](C(=O)N[C@@H](Cc2ccc(OCCN)cc2)C(=O)N[C@@H](Cc2ccc3ccccc3c2)C(=O)N[C@@](C)(CCCCN)C(=O)N[C@@H](CCCCNC(C)=O)C(=O)N[C@@H](CC(N)=O)C(=O)N[C@H](CCCCN)C(N)=O)NC1=O [Peptide 19, Ac-[Abu]-Q-T-[W(7-Ph)]-[Lys(Ac)]-[Cys]-Phe[4-(2-aminoethoxy)]-[2-Nal]-[a-MeLys]-[Lys(Ac)]-N-[(D)Lys]-NH2] (Ac-[Abu(4-yl)]QT[Trp(7-Ph)]K(Ac)C[AEF][2Nal][αMeK]K(Ac)N[dK]-NH2; thioether 1-6) | 21.8 h | 17.8 h |  | > 24 h | > 24 h |  | 
6 | Ac-[dR][Abu]QT[Trp(7-Ph)]K(Ac)C[AEF][2Nal][αMeK]K(Ac)N[dK]-NH2 (thioether 2-7) [Peptide No. 5 (SEQ ID No. 5)] |  |  |  |  |  |  | 8.53 nM
7 | Ac-[Pen]NT[Trp(7-thienyl)]Q[Pen][AEF][2Nal][αMeK]K(Ac)N[dK]-NH2 (disulfide 1-6) [Peptide No. 2 (SEQ ID No. 2)] |  |  |  |  |  |  | 1.21 nM
8 | Ac-[dR][Abu]QT[Trp(7-Ph)]K(Ac)C[AEF][2Nal][αMeK]K(Ac)N-NH2 (thioether 2-7) [Peptide No. 4 (SEQ ID No. 4)] |  |  |  |  |  |  | 49.4 nM
9 | Ac-[dR][Abu]QT[Trp(7-Ph)]K(Ac)C[AEF][2Nal][αMeK]K(Ac)N[dL]-NH2 (thioether 2-7) [Peptide No. 3 (SEQ ID No. 3)] |  |  |  |  |  |  | 9.42 nM
10 | Ac-[Abu]QT[Trp(7-Ph)]K(Ac)C[AEF][2Nal][αMeK]K(Ac)N[dK]-NH2 (thioether 1-6) [Peptide No. 19 (SEQ ID No. 19)] |  |  |  |  |  |  | 2.57 nM
